{
  "source": "patent US20040109845A1",
  "about": "“Method for inhibiting articular cartilage matrix calcification” (priority 2001, published 2004)",
  "key": {"[1]": {"system": "TGase activity (tTGase and Factor XIIIa) in meniscal cells", "test": "TGase activity in cultured knee meniscal cells (BP incorporation into N,N-dimethylcasein)", "assay_type": "cell-based, human", "details": "monolayer culture, 48-72 hrs; IL-1β, TGFβ, TNFα 10 ng/ml; Noc-12 2.5-25 μM; Sin-1 1-10 μM", "protocol": "Meniscal cells were maintained in DMEM high glucose and supplemented with 10% FCS, 1% L-glutamine, 100 units/ml Penicillin and 50 μg/ml Streptomycin (Omega Scientific, Tarzana, Calif.) and cultured at 37° C. with 5% CO2. In monolayer cell culture studies involving stimulation by TGFE[…] or IL-1, the cells were placed in DMEM high glucose containing 1% FCS, 1% L-glutamine, 100 units/ml Penicillin and 50 μg/ml Streptomycin. In all other studies, the cells were cultured in complete medium (as described above). Only primary or first passage meniscal cells were studied.\nTGase activity was measured by modifications to a previously described method (35). Specifically, we coated 96 well ImmunoModule plates (Nunc, Rochester, N.Y.) with 200 μl of 20 mg/ml N,N-dimethylcasein for 1 hr at 23° C. The N,N-dimethylcasein was removed and nonspecific protein binding was blocked by adding 3% BSA in 100 mM Tris, pH 8.5, 150 mM NaCl, 0.05% Tween-20 (TBST) to each well for an additional 1 hr at 23° C. Then, aliquots of 5 μg of total cellular protein from meniscal or TC28 cells that had been lysed and sonicated (in 5 mM Tris HCl, 0.25 M sucrose, 0.2 mM MgSO4, 2 mM DTT, 0.4 mM PMSF, 0.4% Triton X100, pH 7.5), were added to the plate in triplicate. To measure TGase in extracts of whole menisci, 50 mg dry weight of tissue from the central zone of each medial meniscus was used as the source (after solubilization and sonication) for aliquots of 5 μg of soluble protein. Fifty μl of solution A (100 mM Tris, pH 8.5 and 20 mM CaCl2) was added to all samples for TGase assay, followed by the addition of 50 μl of solution B (100 mM Tris, pH 8.5, 40 mM DTT and freshly added 2 mM 5-(Biotinamido) pentylamine (BP)). The plates were incubated for 1 hr at 37° C. The wells were washed once with TBST containing 1 mM EDTA and then three times with TBST. One hundred μl of a 1:500 dilution of streptavidin-AP in 3% BSA/TBST was added to each well for 1 hr at 23° C. The wells were washed twice with TBST, and 200 μl of solution C (100 mM Tris, pH 9.8, mM NaCl, 5 mM MgCl2, 1 mg/ml of freshly added p-nitrophenylphosphate) was added to each well. Readings at OD410 were taken over 15 minutes. Purified guinea pig liver TGase (Sigma) was used to prepare a standard curve. TGase activity was designated as the amount of BP incorporated into casein (per μg cellular DNA, determined chromogenically following precipitation in perchlorate (28), or, where indicated, per μg protein, determined as previously described (28)).\nTo directly induce expression of each TGase in meniscal cells, 5×10^5 primary cells were plated in 60 mm dishes and allowed to adhere overnight. We modified (28) the manufacturer's protocol for the Lipofectamine Plus kit (Life Technologies, Grand Island, N.Y.). To optimize the transfection of meniscal cells, we added 2.0 ml of serum-free DMEM/F12 containing 0.00015% digitonin to washed cells and incubated for 3 min at 23° C. Then, media was removed, and cells transfected at 37° C. for 7 hrs, followed by removal of the media and addition of complete DMEM high glucose medium. Transfection of each TGase into TC28 cells was done by the same procedure, with the exception that the digitonin permeabilization step was omitted."}, "[2]": {"system": "S100A11 mRNA in human articular chondrocytes", "test": "S100A11 mRNA expression by RT-PCR", "assay_type": "cell-based", "details": "10 ng/ml, 24 hours, relative to L30", "protocol": "Normal human knee articular chondrocytes were treated in culture with IL-1 or IGF-I (10 ng/ml) for 24 hours and ascertained for S100A11 mRNA expression by RT-PCR, relative to the loading control L30, a ribosomal housekeeping gene. Results for induction of S100 A11 representative of 3 separate experiments with different donors."}, "[3]": {"system": "meniscal cells and TC28 cells", "test": "Matrix calcification, quantitative Alizarin Red S binding assay", "assay_type": "cell-based, human", "details": "polyHEME culture up to 10 days; cytokines 10 ng/ml or TGase transfection", "protocol": "TC28 cells and meniscal cells were transfected with empty plasmid or a TGase expression construct, and then transferred to polyHEME and cultured for up to 10 days, as described above. For comparison purposes, control untransfected cells were treated with IL-1 or TGFβ(10 ng/ml each) for up to 10 days. To measure matrix calcification, media and cells were removed from the PolyHEME-coated dishes, and 1 ml Alizarin Red S solution (0.5% v/v Alizarin Red S, pH 5.0) added to washed plates at 23° C. for 10 min. After further washing, 100 mM Cetylpyridium Chloride was added for 10 min to release the remaining calcium-bound Alizarin Red S. The solution was collected and read at OD570, with 1.0 OD570=1 unit of Alizarin Red released per μg of DNA per culture dish. n=6 each, studied in triplicate, and using 6 different knee meniscal donors. *p<0.05.\nTo promote matrix calcification in short-term cultures, we modified a nonadherent chondrocyte culture system (37), and assessed cells that formed calcifying nodules over 10 days in culture. In brief, meniscal and TC28 cells, at 24 hours after the transfection, were washed and removed from the dish using 0.2 mg/ml EDTA, pH 8.0, then transferred to 6 well plates that had been previously coated with a 10% (wt./v) in 95% ethanol solution of Poly (2-Hydroxyethyl methacrylate) (polyHEME). […]\nTo assay calcification of the pericellular matrix of meniscal cells and TC28 cells, we used a quantitative Alizarin Red S binding assay (38). […] The solution was collected and read at OD570 on a SpectraMAX microplate reader (Molecular Devices, Sunnyvale, Calif.), with 1 OD570=1 unit of Alizarin Red released per μg of DNA per culture dish. We extracted matrix crystals from plates under each condition using a papain-hypochlorite method (39), and the crystals were embedded in Spurr epoxy resin, sectioned, and viewed on a Philips EM340 transmission electron micrograph and analyzed by electron diffraction (40,41)."}},
  "data": [
    {"substance": "IL-1β: Human recombinant IL-1β purchased from R&D Systems", "values": [
      {"measurement": "Induction of TGase activity in cultured normal knee meniscal cells", "setting": "[1]", "value": "induced increased TGase activity in a donor age-dependent manner"},
      {"measurement": "S100A11 mRNA expression", "setting": "[2]", "value": "induce mRNA expression of S100A11"},
      {"measurement": "Matrix calcification (bound Alizarin Red S)", "setting": "[3]", "value": "significantly increased matrix calcification"}
    ]}
  ]
}
